Reference: ChEMBL document CHEMBL4406843, “β-Amino acid derivatives as mitochondrial complex III inhibitors of L. donovani: A promising chemotype targeting visceral leishmaniasis” (Eur J Med Chem, 2019)
Calls of active or inactive are those of the source. The rule behind the calls is not given here.

How the values were obtained:
[1] = test system: Leishmania donovani; assay: Antileishmanial activity against Leishmania donovani MHOM/IN/80/Dd8 amastigotes harboring luciferase reporter gene infected in mouse J774 cells after 48 hrs by Giemsa staining-based microscopic assay; type: functional, organism-based; details: MHOM/IN/80/Dd8, J774, 48 h
[2] = Toxicity in golden hamster infected with Leishmania donovani amastigotes assessed as reduction in serum ALT level at 50 mg/kg , ip and measured after 10 weeks post infection (reference value: 216 U/L); type: organism-based, Mesocricetus auratus; details: in vivo, 1680 h
[3] = Cytotoxicity against African green monkey Vero cells assessed as reduction in cell viability after 72 hrs by MTT assay; type: cell-based; details: chlorocebus sabaeus
[4] = test system: Leishmania donovani; assay: Induction of ROS generation in Leishmania donovani promastigotes at 50 uM after 12 hrs by H2DCFDA probe based flow cytometry (reference value: 1.97%); type: functional
[5] = Elimination rate constant in BALB/c mouse at 50 mg/kg, ip by HPLC analysis; type: ADME, organism-based; details: in vivo
[6] = test system: Leishmania donovani; assay: (§1) Antileishmanial activity against Leishmania donovani promastigotes infected in BALB/c mouse assessed as inhibition in parasite burden in spleen at 100 mg/kg, ip administered for 7 days starting at 15 days post-infection and measured after 1 week post last dose Giemsa staining-based assay relative to control; type: functional
[7] = test system: Leishmania donovani; assay: Induction of mitochondrial membrane depolarization in Leishmania donovani promastigotes assessed as swelling of mitochondria at 50 uM after 24 hrs by TEM analysis; type: functional, organism-based
[8] = Cytotoxicity against African green monkey Vero cells assessed as cell viability at 25 uM by MTT assay relative to control; type: cell-based; details: chlorocebus sabaeus, read-out: Activity
[9] = Cytotoxicity against mouse J774 cells assessed as cell viability up to 100 uM after 72 hrs by MTT assay relative to control; type: cell-based; details: read-out: Activity
[10] = test system: Leishmania donovani; assay: Induction of ROS generation in Leishmania donovani promastigotes at 50 uM after 48 hrs by H2DCFDA probe based flow cytometry (reference value: 1.97%); type: functional
[11] = test system: Leishmania donovani; assay: Induction of mitochondrial dysfunction in Leishmania donovani promastigotes assessed as reduction in mitochondrial membrane potential at 50 uM after 12 hrs by JC-1 staining-based flow cytometric analysis (reference value: 7.73%); type: functional; design: scale not given: the % may be the effect or the level left
[12] = test system: Leishmania donovani; assay: Induction of membrane depolarization in Leishmania donovani promastigotes assessed as increase in fluorescence at MIC by DiBAC4 dye based flow cytometry analysis; type: functional, organism-based; details: TDE = time-dependent effect
[13] = test system: Leishmania donovani; assay: Induction of mitochondrial dysfunction in Leishmania donovani promastigotes assessed as reduction in mitochondrial membrane potential at 50 uM after 48 hrs by JC-1 staining-based flow cytometric analysis (reference value: 7.73%); type: functional; design: scale not given: the % may be the effect or the level left
[14] = test system: Leishmania donovani; assay: Induction of ROS generation in Leishmania donovani promastigotes at 50 uM after 24 hrs by H2DCFDA probe based flow cytometry (reference value: 1.97%); type: functional
[15] = test system: Leishmania donovani; assay: Antileishmanial activity against promastigote stage of Leishmania donovani MHOM/IN/80/Dd8 harboring luciferase reporter gene at 50 uM after 48 hrs by Steady-Glo luminescence assay relative to control; type: functional; details: MHOM/IN/80/Dd8, 48 h
[16] = test system: Leishmania donovani; assay: Induction of mitochondrial membrane depolarization in Leishmania donovani promastigotes assessed as distorted mitochondria at 50 uM after 24 hrs by TEM analysis; type: functional, organism-based
[17] = Half life in BALB/c mouse at 50 mg/kg, ip by HPLC analysis; type: ADME, organism-based; details: in vivo
[18] = test system: Leishmania donovani; assay: Induction of membrane depolarization in Leishmania donovani promastigotes assessed as increase in fluorescence at 50 uM by DiBAC4 dye based flow cytometry analysis relative to relative to 0.1% Triton X-100; type: functional
[19] = Selectivity index, ratio of CC50 for mouse J774 cells to IC50 for antileishmanial activity against Leishmania donovani MHOM/IN/80/Dd8 amastigotes harboring luciferase reporter gene; type: toxicity; details: read-out: Ratio CC50/IC50
[20] = test system: Leishmania donovani; assay: Antileishmanial activity against Leishmania donovani MHOM/IN/80/Dd8 amastigotes harboring luciferase reporter gene infected in mouse J774 cells at 100 uM after 72 hrs by Steady-Glo luminescence assay relative to control; type: functional; details: MHOM/IN/80/Dd8, J774, 72 h
[21] = Tmax in BALB/c mouse at 50 mg/kg, ip by HPLC analysis; type: ADME, organism-based; details: in vivo
[22] = test system: Leishmania donovani; assay: Inhibition of ubiquinol cytochrome c reductase in Leishmania donovani promastigotes mitochondria at 50 uM using decylubiquinol as substrate in presence of cytochrome c relative to control
[23] = Stability in mouse liver microsomes assessed as compound remaining after 1 hr in presence of NADPH by UPLC analysis; type: ADME, Microsome; details: read-out: Stability
[24] = test system: Leishmania donovani; assay: Induction of mitochondrial dysfunction in Leishmania donovani promastigotes assessed as reduction in mitochondrial membrane potential at 50 uM after 24 hrs by JC-1 staining-based flow cytometric analysis (reference value: 7.73%); type: functional; design: scale not given: the % may be the effect or the level left
[25] = test system: Leishmania donovani; assay: as §1, with “liver” for “spleen”, “50” for “100”; type: functional
[26] = Toxicity in BALB/c mouse infected with Leishmania donovani promastigotes assessed as serum AST level at 50 mg/kg , ip measured after 3 to 7 weeks (reference value: 114 U/L); type: organism-based; details: in vivo
[27] = test system: Leishmania donovani; assay: Induction of ROS generation in Leishmania donovani promastigotes at 50 uM after 6 hrs by H2DCFDA probe based flow cytometry (reference value: 1.97%); type: functional
[28] = test system: Leishmania donovani; assay: Induction of mitochondrial dysfunction in Leishmania donovani promastigotes assessed as reduction in mitochondrial membrane potential at 50 uM after 3 hrs by JC-1 staining-based flow cytometric analysis (reference value: 7.73%); type: functional; design: scale not given: the % may be the effect or the level left
[29] = test system: Leishmania donovani; assay: Antileishmanial activity against Leishmania donovani MHOM/IN/80/Dd8 promastigotes harboring luciferase reporter gene assessed as inhibition of viability at 3.12 to 100 uM after 24 to 72 hrs by MTT assay relative to control; type: functional
[30] = Cytotoxicity against mouse J774 cells assessed as reduction in cell viability after 72 hrs by MTT assay; type: cell-based
[31] = test system: Leishmania donovani; assay: as §1, with “200” for “100”; type: functional
[32] = test system: Leishmania donovani; assay: Induction of bio-energetic collapse in Leishmania donovani promastigotes assessed as reduction in ATP level at 50 uM after 48 hrs by bioluminescence based method relative to control; type: functional; design: scale not given: the % may be the effect or the level left
[33] = test system: Leishmania donovani; assay: as §1, with “liver” for “spleen”; type: functional
[34] = Volume of distribution in BALB/c mouse at 50 mg/kg, ip by HPLC analysis; type: ADME, organism-based; details: in vivo
[35] = test system: Leishmania donovani; assay: Antileishmanial activity against promastigote stage of Leishmania donovani MHOM/IN/80/Dd8 harboring luciferase reporter gene at 25 uM after 48 hrs by Steady-Glo luminescence assay relative to control; type: functional; details: MHOM/IN/80/Dd8, 48 h
[36] = Stability in simulated gastric fluid at 10 ug/ml measured after 2 hrs by UPLC analysis relative to control; type: ADME; details: read-out: Stability
[37] = test system: Leishmania donovani; assay: Induction of apoptosis in Leishmania donovani promastigotes assessed as late apoptotic cells at 50 uM after 48 hrs by Annexin-V/propidium iodide staining based flow cytometric method (reference value: 0.59%); type: functional

CCOC(=O)C(C(=O)c1ccc(OC)cc1)C(NC(C)=O)c1cccc2ccccc12 (configuration not stated)
IC50 [1]: 16.9 µM
Activity [2]: 166 IU/L
CC50 at 72 h [3]: > 350 µM
Activity [4]: 50.35%
k el [5]: 3.89e-05 s⁻¹
inhibition in vivo at 100 mg/kg [6]: 92.8%
Activity [7]: Active
viability at 25 µM [8]: 99.2%
viability at 72 h [9]: > 93%
Activity [10]: 65.74%
Activity [11]: 37.26%
Activity [12]: Tde
Activity [13]: 67.97%
Activity [14]: 85.54%
inhibition at 50 µM [15]: 96.6%
Activity [16]: Active
half-life [17]: 5.11 h
Activity [18]: <=78.5%
selectivity ratio [19]: 23.4
inhibition at 100 µM [20]: 95.9%
Tmax [21]: 0.25 h
inhibition [22]: > 49%
remaining at 1 h [23]: 86.9%
Activity [24]: 63.61%
inhibition in vivo at 50 mg/kg [25]: 91.5%
Activity [26]: 54 to 298 IU/L
Activity [27]: 30.3%
Activity [28]: 8.62%
inhibition (INH) [29]: 95.4%
CC50 at 72 h [30]: > 350 µM
inhibition in vivo at 200 mg/kg [31]: 93.1%
Activity [32]: >67%
inhibition in vivo at 100 mg/kg [33]: 92.1%
Vd [34]: 301.51 L/kg
inhibition at 25 µM [35]: 85.3%
remaining at 2 h, 10 ug/ml [36]: 81.9%
Activity [37]: 2.65%
